{"source": "paper PMC7866972", "about": "“Crosstalk of Cancer Signaling Pathways by Cyclic Hexapeptides and Anthraquinones from Rubia cordifolia” (Molecules, 2021)", "type_in_all_cases": "cell-based", "key": {"Notch": {"system": "Notch", "assay": "Notch luciferase reporter assay (PMA induced)", "details": "Homo sapiens; for activity at 1 µg/mL: Hela cells, 6 h, read-out: percentage of luciferase induction Notch/PMA", "protocol": "(§1) Hela cells from ATCC were plated in white opaque 384 well plates at a density of 4300 cells/well in 30 µL of a growth medium (DMEM with 10% FBS and 1% Pen/step). The next day, the medium was aspirated and replaced with DMEM containing 10% FBS. The cells were transfected with respective plasmids using the X-tremeGENE HP transfection reagent (Roche). Luciferase vectors used in this assay are summarized in Table S2, Supporting Information. After 24 h of transfection, the test agents were added to the transfected cells, followed 30 min later by an inducing agent (IL-6 for Stat 3, TGF-beta for Smad, m-wnt3a for Wnt and PMA for AP-1, NF-kB, E2F, Myc, ETS, Notch and Hedgehog). No inducer was added for FoXO, miR-21, and […]. After 4 h or 6 h of induction, the cells were lysed by the addition of the One-Glo luciferase assay system (Promega, Madison, WI, USA). The light output was detected in a Glomax Multi+ detection system with the Instinct Software (Promega, Madison, WI, USA). This luciferase assay determines if the test agent was able to inhibit the activation of cancer-related signaling pathways. In the case of FoxO and mi-R21, the enhanced luciferase activity by the test agent was assessed."}, "NF-κB": {"system": "NF-κB", "assay": "NF-κB luciferase reporter assay (PMA induced)", "details": "Homo sapiens; for activity at 1 µg/mL: Hela cells, 4 h, read-out: percentage of luciferase induction NF-kB/PMA", "protocol": "as §1"}, "Smad": {"system": "Smad", "assay": "Smad luciferase reporter assay (TGF-beta induced)", "details": "for percentage of luciferase induction Smad/TGF-b: Hela cells, 1µg/ml, 4 h", "protocol": "as §1"}, "FoxO": {"system": "FoxO", "assay": "FoxO luciferase reporter assay (no inducer)", "details": "for percentage of luciferase induction FoxO: Hela cells, 1µg/ml, 6 h", "protocol": "as §1"}, "[1]": {"system": "cancer-related signaling pathways in HeLa cells", "assay": "Panel of luciferase reporter genes for cancer-related signaling pathways", "protocol": "as §1\n(§2) The simulated gastric fluid was prepared as described in the United States Pharmacopoeia (USP, 1995) and consists of 0.2% w/v of NaCl and 0.7% v/v of hydrochloric acid at pH 1.2. Aliquots (48 µL) of SGF were placed in 1.5-mL microcentrifuge tubes and incubated in a water bath at 37 °C [35]. In addition, 2 µL of compound 6 (10 mg/mL in DMSO) was added to each of the SGF vials to start the digestion reaction. The incubation was continued for 60 min and the digestion was stopped with 150 µL of ice-cold cell culture media. The digested samples were used for the cytotoxicity and luciferase assays at different concentrations and the activities were compared between the untreated and SGF treated peptide samples."}, "pTK control vector": {"system": "pTK control vector", "assay": "pTK control vector luciferase assay (minimal thymidine kinase promoter)", "details": "no inducer; for percentage of luciferase induction pTK: Hela cells, 1µg/ml", "protocol": "as §1"}, "E2F": {"system": "E2F", "assay": "E2F luciferase reporter assay (PMA induced)", "details": "Homo sapiens; for activity at 1 µg/mL: Hela cells, 4 h, read-out: percentage of luciferase induction E2F/PMA", "protocol": "as §1"}, "Stat3": {"system": "Stat3", "assay": "Stat3 luciferase reporter assay (IL-6 induced)", "details": "Homo sapiens; for activity at 1 µg/mL: Hela cells, 4 h, read-out: percentage of luciferase induction Stat3/IL-6", "protocol": "as §1"}, "Ap-1": {"system": "Ap-1", "assay": "AP-1 luciferase reporter assay (PMA induced)", "details": "for activity at 1 µg/mL: Hela cells, 4 h, read-out: percentage of luciferase induction Ap-1/PMA", "protocol": "as §1"}, "miR-21": {"system": "miR-21", "assay": "miR-21 luciferase reporter assay (no inducer)", "details": "Hela cells, 1µg/ml, 6 h", "protocol": "as §1"}, "Wnt": {"system": "Wnt", "assay": "Wnt luciferase reporter assay (m-wnt3a induced)", "details": "Homo sapiens; for activity at 1 µg/mL: Hela cells, 6 h, read-out: percentage of luciferase induction Wnt/m-wnt 3a", "protocol": "as §1"}, "Ets": {"system": "Ets", "assay": "Ets luciferase reporter assay (PMA induced)", "details": "Homo sapiens; for activity at 1 µg/mL: Hela cells, 4 h, read-out: percentage of luciferase induction Ets/PMA", "protocol": "as §1"}, "Myc": {"system": "Myc", "assay": "Myc luciferase reporter assay (PMA induced)", "details": "Homo sapiens; for activity at 1 µg/mL: Hela cells, 4 h, read-out: percentage of luciferase induction Myc/PMA", "protocol": "as §1"}, "MDA-MB 231 cells": {"system": "MDA-MB 231 cells", "assay": "Cytotoxicity assay (WST-8) of SGF/SIF treated and untreated peptide", "details": "48 h, SGF pH 1.2 60 min or SIF pH 7.5 with pancreatin 8 h, 37 °C, unpaired t-test", "protocol": "(§3) T98G and MDA-MB 231 cells from ATCC, were plated in clear 384-well plates at an initial density of 1700 cells/well for T98G cells and 2500 cells/well of MDA-MB 231 cells in 40 µL of a growth medium (DMEM with 10% FBS and 1% Pen/step). The next day, the test agents were added at the specified concentration, the treatment continued for 48 h, and the cell viability was finally assessed using the WST-8 assay Cell Counting Kit from Bimake, according to the manufacturer’s instructions. The results were measured by absorbance at 450 nm using the SpectraMax M5 plate reader (Molecular Devices). The cell viability was calculated in comparison to the DMSO control.\nas §2, with “samples. […]” for “samples.”"}, "T98G cells": {"system": "T98G cells", "assay": "Cytotoxicity assay (WST-8) of SGF/SIF treated and untreated peptide", "details": "48 h, SGF pH 1.2 60 min or SIF pH 7.5 with pancreatin 8 h, 37 °C, unpaired t-test", "protocol": "as §3\nas §2, with “samples. […]” for “samples.”"}, "Hedgehog": {"system": "Hedgehog", "assay": "Hedgehog luciferase reporter assay (PMA induced)", "details": "Homo sapiens; for activity at 1 µg/mL: Hela cells, 6 h, read-out: percentage of luciferase induction Hdghog/PMA", "protocol": "as §1"}, "[2]": {"details": "SGF treated compound (pH 1.2, 37 °C, 60 min)"}, "[3]": {"details": "HeLa cells, agent added 30 min before PMA, harvested 4 h later, ND = No activity detected"}}, "note": "“Also recorded” adds a separate entry of the source. Read-outs that look alike come from different tables or passages of the source."}
{"compound": "COc1ccc(C[C@H]2C(=O)N[C@@H](C)C(=O)N(C)[C@H]3Cc4ccc(cc4)Oc4cc(ccc4O)C[C@@H](C(=O)N[C@H](C)C(=O)N[C@@H](C)C(=O)N2C)N(C)C3=O)cc1", "note": "[Compound 6, deoxybouvardin]", "values": [{"measurement": "IC50", "setting": "Notch; HeLa cells, agent added 30 min before PMA, harvested 6 h later, ND = No activity detected", "result": 0.093, "unit": "µg/mL"}, {"measurement": "activity at 1 µg/mL", "setting": "Notch; [2]", "result": 56, "unit": "%"}, {"measurement": "activity at 1 µg/mL", "setting": "Notch; untreated compound", "result": 65, "unit": "%"}, {"measurement": "IC50", "setting": "NF-κB; [3]", "result": 0.17, "unit": "µg/mL"}, {"measurement": "activity at 1 µg/mL", "setting": "NF-κB; [2]", "result": 34, "unit": "%"}, {"measurement": "activity at 1 µg/mL", "setting": "NF-κB; untreated compound", "result": 33, "unit": "%"}, {"measurement": "percentage of luciferase induction Smad/TGF-b", "setting": "Smad; [2]", "result": 41, "unit": "%"}, {"measurement": "percentage of luciferase induction Smad/TGF-b", "setting": "Smad; untreated compound", "result": 33, "unit": "%"}, {"measurement": "IC50", "setting": "Smad; Homo sapiens, HeLa cells, agent added 30 min before TGF-beta, harvested 4 h later, ND = No activity detected", "result": 0.3, "unit": "µg/mL"}, {"measurement": "percentage of luciferase induction FoxO", "setting": "FoxO; [2]", "result": 68, "unit": "%"}, {"measurement": "percentage of luciferase induction FoxO", "setting": "FoxO; untreated compound", "result": 51, "unit": "%"}, {"measurement": "IC50", "setting": "FoxO; Homo sapiens, HeLa cells, harvested 6 h later, ND = No activity detected", "result": 0.1, "unit": "µg/mL"}, {"measurement": "activity of SGF treated peptide across the panel of cancer signaling pathways compared to untreated peptide", "setting": "[1]; Hela cells, SGF treated, Table S1", "result": "comparable to the untreated peptide"}, {"measurement": "IC50", "setting": "[1]; Homo sapiens, HeLa cells, summary statement on Table 1, read-out: IC50 values for several pathways across the panel", "result": "< 0.5", "unit": "µg/mL"}, {"measurement": "percentage of luciferase induction pTK", "setting": "pTK control vector; [2]", "result": 48, "unit": "%"}, {"measurement": "percentage of luciferase induction pTK", "setting": "pTK control vector; untreated compound", "result": 50, "unit": "%"}, {"measurement": "IC50", "setting": "pTK control vector; Homo sapiens, HeLa cells, ND = No activity detected", "result": 0.9, "unit": "µg/mL"}, {"measurement": "IC50", "setting": "E2F; [3]", "result": 0.36, "unit": "µg/mL"}, {"measurement": "activity at 1 µg/mL", "setting": "E2F; [2]", "result": 8, "unit": "%"}, {"measurement": "activity at 1 µg/mL", "setting": "E2F; untreated compound", "result": 82, "unit": "%"}, {"measurement": "IC50", "setting": "Stat3; HeLa cells, agent added 30 min before IL-6, harvested 4 h later, ND = No activity detected", "result": 0.18, "unit": "µg/mL"}, {"measurement": "activity at 1 µg/mL", "setting": "Stat3; [2]", "result": -4, "unit": "%"}, {"measurement": "activity at 1 µg/mL", "setting": "Stat3; untreated compound", "result": -4, "unit": "%"}, {"measurement": "IC50", "setting": "Ap-1; [3]", "result": 0.22, "unit": "µg/mL"}, {"measurement": "activity at 1 µg/mL", "setting": "Ap-1; [2]", "result": 43, "unit": "%"}, {"measurement": "activity at 1 µg/mL", "setting": "Ap-1; untreated compound", "result": 48, "unit": "%"}, {"measurement": "percentage of luciferase induction miR21", "setting": "miR-21; [2]", "result": 150, "unit": "%"}, {"measurement": "percentage of luciferase induction miR21", "setting": "miR-21; untreated compound", "result": 183, "unit": "%"}, {"measurement": "IC50", "setting": "Wnt; HeLa cells, agent added 30 min before m-wnt 3a, harvested 6 h later, ND = No activity detected", "result": 0.05, "unit": "µg/mL"}, {"measurement": "activity at 1 µg/mL", "setting": "Wnt; [2]", "result": 12, "unit": "%"}, {"measurement": "activity at 1 µg/mL", "setting": "Wnt; untreated compound", "result": 6, "unit": "%"}, {"measurement": "IC50", "setting": "Ets; [3]", "result": 0.18, "unit": "µg/mL"}, {"measurement": "activity at 1 µg/mL", "setting": "Ets; [2]", "result": 58, "unit": "%"}, {"measurement": "activity at 1 µg/mL", "setting": "Ets; untreated compound", "result": 60, "unit": "%"}, {"measurement": "IC50", "setting": "Myc; [3]", "result": 0.075, "unit": "µg/mL"}, {"measurement": "activity at 1 µg/mL", "setting": "Myc; [2]", "result": 20, "unit": "%"}, {"measurement": "activity at 1 µg/mL", "setting": "Myc; untreated compound", "result": -8, "unit": "%"}, {"measurement": "activity (cell viability) of SGF or SIF treated compared to untreated compound", "setting": "MDA-MB 231 cells", "result": "remained the same before and after the treatment; also recorded: non-significant"}, {"measurement": "activity (cell viability) of SGF or SIF treated compared to untreated compound", "setting": "T98G cells", "result": "remained the same before and after the treatment; also recorded: non-significant"}, {"measurement": "IC50", "setting": "Hedgehog; HeLa cells, agent added 30 min before PMA, harvested 6 h later, ND = No activity detected, read-out: IC50 Hdghog/PMA", "result": 0.2, "unit": "µg/mL"}, {"measurement": "activity at 1 µg/mL", "setting": "Hedgehog; [2]", "result": 5, "unit": "%"}, {"measurement": "activity at 1 µg/mL", "setting": "Hedgehog; untreated compound", "result": 1, "unit": "%"}]}
